Experimental data taken from publication PMC7611167 (Journal of medicinal chemistry, 2019).

How the values were obtained:
GSK3β = GSK3β (Homo sapiens, UniProt P49841); assay: Kinase panel, GSK3β; type: biochemical; conditions: at 1μM
panel of 59 kinases = assay: Kinase panel; type: biochemical
[1] = test system: influenza A/Puerto Rico/8/34 (H1N1); conditions: mouse, in vivo, po, 30 mg/kg
[2] = test system: A/Puerto Rico/8/34 (H1N1); type: cell-based, influenza A virus
aldehyde oxidase (AO) = target: T1, aldehyde oxidase (AO) (Homo sapiens, UniProt Q06278); assay: Aldehyde oxidase metabolism in human liver cytosol; type: in vitro ADME; conditions: 1 μM, 1 mg/mL protein, 37°C, up to 60 minutes, with or without Raloxifene
T1 sequence (Q06278 1-1338): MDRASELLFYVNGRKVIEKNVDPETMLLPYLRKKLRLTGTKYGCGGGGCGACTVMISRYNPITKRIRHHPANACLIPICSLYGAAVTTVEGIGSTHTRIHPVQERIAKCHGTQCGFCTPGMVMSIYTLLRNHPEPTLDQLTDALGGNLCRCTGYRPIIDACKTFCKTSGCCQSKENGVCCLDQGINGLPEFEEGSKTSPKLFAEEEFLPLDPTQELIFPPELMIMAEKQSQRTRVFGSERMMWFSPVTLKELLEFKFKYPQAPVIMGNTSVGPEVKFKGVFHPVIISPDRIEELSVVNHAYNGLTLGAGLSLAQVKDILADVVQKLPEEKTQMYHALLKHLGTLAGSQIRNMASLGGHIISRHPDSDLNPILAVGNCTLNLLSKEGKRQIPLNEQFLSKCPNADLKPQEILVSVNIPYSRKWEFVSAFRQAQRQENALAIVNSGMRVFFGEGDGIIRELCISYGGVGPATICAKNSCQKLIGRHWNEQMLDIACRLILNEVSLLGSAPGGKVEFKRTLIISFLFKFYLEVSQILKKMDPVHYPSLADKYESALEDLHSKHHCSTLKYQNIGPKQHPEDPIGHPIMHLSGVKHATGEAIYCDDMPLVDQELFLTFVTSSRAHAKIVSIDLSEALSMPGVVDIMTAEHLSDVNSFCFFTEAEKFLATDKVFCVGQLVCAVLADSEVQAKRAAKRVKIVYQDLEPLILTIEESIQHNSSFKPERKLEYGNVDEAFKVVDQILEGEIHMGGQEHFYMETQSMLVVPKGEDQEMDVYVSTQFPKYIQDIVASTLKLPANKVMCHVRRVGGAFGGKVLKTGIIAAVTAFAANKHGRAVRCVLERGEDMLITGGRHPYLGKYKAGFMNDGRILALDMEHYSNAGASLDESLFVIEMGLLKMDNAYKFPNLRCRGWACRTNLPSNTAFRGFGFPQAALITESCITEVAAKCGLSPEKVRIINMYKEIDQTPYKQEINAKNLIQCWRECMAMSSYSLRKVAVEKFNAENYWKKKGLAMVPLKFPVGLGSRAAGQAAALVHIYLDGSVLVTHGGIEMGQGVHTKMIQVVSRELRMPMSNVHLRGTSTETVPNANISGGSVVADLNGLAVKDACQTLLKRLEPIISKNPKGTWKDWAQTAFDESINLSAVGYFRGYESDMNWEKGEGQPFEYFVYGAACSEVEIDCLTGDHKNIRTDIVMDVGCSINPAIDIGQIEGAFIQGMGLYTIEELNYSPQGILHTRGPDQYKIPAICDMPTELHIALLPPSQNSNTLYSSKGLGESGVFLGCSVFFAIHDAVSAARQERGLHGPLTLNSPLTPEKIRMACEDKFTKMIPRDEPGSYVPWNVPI

Chain of GSK3β (P49841 whole entry, species assumed): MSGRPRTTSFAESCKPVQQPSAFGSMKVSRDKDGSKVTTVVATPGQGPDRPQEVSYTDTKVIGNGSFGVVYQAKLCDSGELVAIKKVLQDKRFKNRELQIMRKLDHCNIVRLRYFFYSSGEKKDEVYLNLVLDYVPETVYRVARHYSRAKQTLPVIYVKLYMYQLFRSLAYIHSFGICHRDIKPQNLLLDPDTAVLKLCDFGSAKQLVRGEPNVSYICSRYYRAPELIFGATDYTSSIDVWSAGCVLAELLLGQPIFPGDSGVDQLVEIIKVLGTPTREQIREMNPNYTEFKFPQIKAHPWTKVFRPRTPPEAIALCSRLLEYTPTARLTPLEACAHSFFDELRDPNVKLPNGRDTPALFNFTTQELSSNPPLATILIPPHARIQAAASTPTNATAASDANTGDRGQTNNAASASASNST

O=C(O)[C@H]1C2CCC(CC2)[C@@H]1Nc1nc(-c2c[nH]c3c(F)cc(F)cc23)ncc1F [Compound 11a, (2S,3S)-3-((2-(5,7-difluoro-1H-indol-3-yl)-5-fluoropyrimidin-4-yl)amino)bicyclo [2.2.2]octane-2-carboxylic acid]
GSK3β inhibition (GSK3β): no inhibition
Activity across a panel of 59 kinases (panel of 59 kinases): inactive
Body weight course [1]: regained weight from day 11

O=C(O)[C@H]1C2CCC(CC2)[C@@H]1Nc1nc(-c2c[nH]c3c(F)cc(Cl)cc23)ncc1F [Compound 11b, (2S,3S)-3-((2-(5-chloro-7-fluoro-1H-indol-3-yl)-5-fluoropyrimidin-4-yl)amino)bicyclo-[2.2.2]octane-2-carboxylic acid]
A/Puerto Rico/8/34 SI (selectivity index, CC50/IC50) [2]: >485

N#Cc1cc(F)c2[nH]cc(-c3ncc(F)c(N[C@H]4C5CCC(CC5)[C@@H]4C(=O)O)n3)c2c1 [Compound 11d, (2S,3S)-3-((2-(5-cyano-7-fluoro-1H-indol-3-yl)-5-fluoropyrimidin-4-yl)amino) bicyclo[2.2.2]octane-2-carboxylic acid]
A/Puerto Rico/8/34 SI (selectivity index, CC50/IC50) [2]: >612

CCOC(=O)C1=C[C@@H](OC(CC)CC)[C@H](NC(C)=O)[C@@H](N)C1 [Oseltamivir, reference compound]
A/Puerto Rico/8/34 SI (selectivity index, CC50/IC50) [2]: >4132

c1ccc2cnncc2c1 [phthalazine]
Aldehyde oxidase (AO) metabolism in human liver cytosol (aldehyde oxidase (AO)): AO metabolism in the normal range
